Data reported in patent US11186564B2, “Dual NAV1.2/5HT2a inhibitors for treating CNS disorders” (Sunovion Pharmaceuticals Inc., priority 2016, dated 2021).
pIC50: −log10 of the molar value. Where a name gives a salt, the structure may show the parent alone.

Experiments:
[1] = target: T1, recombinant human serotonin receptor 5-HT2A (Homo sapiens, UniProt P28223); assay: 5-HT2A antagonist Ca2+ assay in CHO-K1 cells (method A aequorin luminescence / method B FLIPR fluorescence); format: cell-based; settings: antagonist mode vs EC80 of reference agonist, method A or B, read-out: 5HT2A IC50
T1 construct: expressed in transfected cells; method B: loaded with Ca2+ dye
Outline: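 IC50 was obtained by nonlinear regression of percent inhibition of the EC80 agonist Ca2+ response in CHO-K1 cells stably expressing human 5-HT2A. The readout was aequorin luminescence with agonist injected 15 min after compound (A), or Ca2+-dye fluorescence on FLIPR with serotonin as agonist (B).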

[2] = target: human sodium channel NaV1.2 (Homo sapiens, UniProt Q99250); assay: NaV1.2 inhibition, automated patch-clamp (Q-Patch HTX), slow inactivated state (state C); format: cell-based; settings: hNaV1.2 CHO cells, slow inactivated state; for inhibition at 10 µM: 10 μM compound, read-out: NaV1.2 (% inh), 10 μM; for inhibition at 1 µM: 1 μM compound, read-out: NaV1.2 (% inh), 1 μM; for pIC50: read-out: NaV1.2 IC50
Outline: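 IC50 comes from a least-squares fit of percent inhibition, relative to vehicle, of current in the slow-inactivated state. That state is reached by a 10 s prepulse to −50 mV, then 15 ms at −90 mV, then a 5 ms test pulse to 0 mV. Human NaV1.2 in stable CHO K-1 cells, held at −100 mV, automated patch clamp.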

Chain of human sodium channel NaV1.2 (Q99250 whole entry): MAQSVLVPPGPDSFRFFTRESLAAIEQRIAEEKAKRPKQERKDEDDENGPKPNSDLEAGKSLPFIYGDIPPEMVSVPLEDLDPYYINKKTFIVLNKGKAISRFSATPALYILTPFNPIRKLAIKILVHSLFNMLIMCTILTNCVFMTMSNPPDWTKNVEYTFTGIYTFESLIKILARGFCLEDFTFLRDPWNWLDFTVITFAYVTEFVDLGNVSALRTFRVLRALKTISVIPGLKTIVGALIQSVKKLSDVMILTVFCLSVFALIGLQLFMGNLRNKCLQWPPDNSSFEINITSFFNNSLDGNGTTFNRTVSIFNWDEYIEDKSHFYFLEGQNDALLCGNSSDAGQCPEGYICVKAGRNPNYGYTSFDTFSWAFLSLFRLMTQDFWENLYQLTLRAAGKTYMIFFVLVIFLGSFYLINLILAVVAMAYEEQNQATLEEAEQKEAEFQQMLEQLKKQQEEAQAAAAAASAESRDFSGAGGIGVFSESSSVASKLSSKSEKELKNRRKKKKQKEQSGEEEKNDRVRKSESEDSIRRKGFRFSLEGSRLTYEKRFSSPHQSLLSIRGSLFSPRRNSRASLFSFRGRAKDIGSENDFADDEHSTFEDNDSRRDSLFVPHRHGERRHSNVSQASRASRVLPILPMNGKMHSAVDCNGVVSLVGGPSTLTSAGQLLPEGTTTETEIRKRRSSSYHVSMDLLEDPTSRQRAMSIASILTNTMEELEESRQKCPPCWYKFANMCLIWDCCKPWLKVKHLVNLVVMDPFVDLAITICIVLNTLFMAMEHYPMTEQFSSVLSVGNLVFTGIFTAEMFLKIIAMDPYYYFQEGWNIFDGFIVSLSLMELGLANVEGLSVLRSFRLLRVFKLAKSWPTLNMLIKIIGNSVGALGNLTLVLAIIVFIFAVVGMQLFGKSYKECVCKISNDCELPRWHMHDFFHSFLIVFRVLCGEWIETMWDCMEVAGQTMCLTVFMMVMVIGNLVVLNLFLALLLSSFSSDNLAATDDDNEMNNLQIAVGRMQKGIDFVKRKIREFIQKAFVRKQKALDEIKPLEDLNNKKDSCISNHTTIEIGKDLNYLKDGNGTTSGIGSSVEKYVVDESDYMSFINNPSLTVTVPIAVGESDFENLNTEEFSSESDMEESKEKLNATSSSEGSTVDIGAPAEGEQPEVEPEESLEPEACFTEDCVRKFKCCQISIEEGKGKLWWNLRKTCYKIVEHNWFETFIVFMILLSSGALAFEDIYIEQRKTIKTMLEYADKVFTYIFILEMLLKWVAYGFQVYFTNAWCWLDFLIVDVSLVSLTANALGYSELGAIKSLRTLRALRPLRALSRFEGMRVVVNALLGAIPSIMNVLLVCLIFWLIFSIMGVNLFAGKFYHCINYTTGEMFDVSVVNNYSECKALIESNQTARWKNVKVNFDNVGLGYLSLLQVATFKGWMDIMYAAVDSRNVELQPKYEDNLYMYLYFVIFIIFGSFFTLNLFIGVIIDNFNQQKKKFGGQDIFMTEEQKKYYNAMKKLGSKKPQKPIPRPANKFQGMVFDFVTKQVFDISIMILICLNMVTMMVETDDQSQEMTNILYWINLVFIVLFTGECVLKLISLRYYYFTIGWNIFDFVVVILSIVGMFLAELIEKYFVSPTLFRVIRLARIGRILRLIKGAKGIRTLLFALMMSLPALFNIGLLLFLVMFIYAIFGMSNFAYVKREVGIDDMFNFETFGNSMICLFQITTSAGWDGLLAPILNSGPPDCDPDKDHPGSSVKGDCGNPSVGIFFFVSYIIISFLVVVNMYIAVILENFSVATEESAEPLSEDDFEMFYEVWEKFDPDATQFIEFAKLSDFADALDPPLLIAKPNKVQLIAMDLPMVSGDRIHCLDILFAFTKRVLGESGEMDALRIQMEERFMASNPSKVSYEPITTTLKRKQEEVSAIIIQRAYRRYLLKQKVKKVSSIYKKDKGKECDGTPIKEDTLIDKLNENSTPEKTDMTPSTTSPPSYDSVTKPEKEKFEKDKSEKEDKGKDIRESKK
T1 sequence (P28223 whole entry): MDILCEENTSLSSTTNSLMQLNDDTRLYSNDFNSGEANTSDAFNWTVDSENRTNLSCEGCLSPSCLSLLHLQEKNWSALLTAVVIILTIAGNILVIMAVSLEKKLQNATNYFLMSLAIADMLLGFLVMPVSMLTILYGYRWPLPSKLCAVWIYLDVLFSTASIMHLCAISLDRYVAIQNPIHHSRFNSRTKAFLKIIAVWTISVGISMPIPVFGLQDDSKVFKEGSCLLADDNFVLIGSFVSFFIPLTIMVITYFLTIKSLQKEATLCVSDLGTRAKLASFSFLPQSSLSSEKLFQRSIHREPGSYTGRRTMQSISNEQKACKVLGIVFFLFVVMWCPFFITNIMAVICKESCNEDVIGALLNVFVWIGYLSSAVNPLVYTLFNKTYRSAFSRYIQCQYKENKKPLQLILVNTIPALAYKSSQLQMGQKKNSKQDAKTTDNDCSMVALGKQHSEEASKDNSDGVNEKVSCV

Row | SMILES | inhibition at 10 µM [2] [%] | inhibition at 1 µM [2] [%] | pIC50 [1] | pIC50 [2]
1 | Cc1ccccc1OC1CCN(CC2Cc3cccnc3C2)CC1 (centres unmarked) [Example 137, 6-((4-(o-tolyloxy)piperidin-1-yl)methyl)-6,7-dihydro-5H-cyclopenta[b] pyridine] |  | 44 | 7.40 | 
2 | COc1ccccc1OC1CCN(CC2Cc3ccccc3C2)CC1 [Example 136, 1-((2,3-dihydro-1H-inden-2-yl)methyl)-4-(2-methoxyphenoxy)piperidine] |  | 50 | 7.22 | 
3 | OC(COC1CCCCC1)CN1CCC2(CCN(c3ccccc3)C2)C1 (centres unmarked) [Example 344, 1-(cyclohexyloxy)-3-(7-phenyl-2,7-diazaspiro[4.4]nonan-2-yl)propan-2-ol] |  |  | 6.96 | 6.37
4 | COc1ccccc1OC1CCN(CC2c3ccccc3CC2C)CC1 (centres unmarked) [Example 101, 4-(2-methoxyphenoxy)-1-((2-methyl-2,3-dihydro-1H-inden-1-yl)methyl)piperidine] |  |  | 7.10 | 6.43
5 | COc1ccccc1O[C@@H]1CCN(CC2Cc3ccccc3C2)[C@@H](C)C1 [Example 142, (2S,4R)-1-((2,3-dihydro-1H-inden-2-yl)methyl)-4-(2-methoxyphenoxy)-2-methylpiperidine] |  |  | 6.52 | 6.04
6 | c1ccc(C2COC3(CCN(CC4CCc5ccccc54)CC3)C2)cc1 (single isomer, unassigned) [Example 375, 8-((2,3-dihydro-1H-inden-1-yl)methyl)-3-phenyl-1-oxa-8-azaspiro[4,5]decane] |  |  | 6.59 | 6.46
7 | COc1ccccc1OC1CCN(CC2CCc3ccccc32)CC1(C)C (centres unmarked) [Example 103, 1-((2,3-dihydro-1H-inden-1-yl)methyl)-4-(2-methoxyphenoxy)-3,3-dimethylpiperidine] |  |  | 6.66 | 5.50
8 | OC(CO[C@@H]1CCCc2ccccc21)CN1CC[C@@H](Oc2ccc(F)cc2)C1 (stereo partly drawn) [Example 50, 1-((R)-3-(4-fluorophenoxy)pyrrolidin-1-yl)-3-(((R)-1,2,3,4-tetrahydronaphthalen-1-yl)oxy)propan-2-ol] |  |  | 7.22 | 5.89
9 | O[C@@H](CO[C@@H]1CCCc2ccccc21)CN1CC[C@@H](Oc2ccc(F)cc2)C1 [Example 53, (R)-1-((R)-3-(4-fluorophenoxy)pyrrolidin-1-yl)-3-(((R)-1,2,3,4-tetrahydronaphthalen-1-yl)oxy)propan-2-ol] |  |  | 6.64 | 5.71
10 | c1ccc(OC2COC3(C2)CN(CC2CCc4ccccc42)C3)cc1 (single isomer, unassigned) [Compound 362, 2-((2,3-dihydro-1H-inden-1-yl)methyl)-7-phenoxy-5-oxa-2-azaspiro[3.4]octane] |  |  | 6.30 | 5.20
11 | COc1ccc2c(c1)C(CN1CCC(Oc3ccc(F)cc3)CC1)CC2 (centres unmarked) [Example 113, 4-(4-fluorophenoxy)-1-((6-methoxy-2,3-dihydro-1H-inden-1-yl)methyl)piperidine hydrochloride] |  |  | 8.70 | 6.26
12 | Fc1ccc(OC2CCN(CC3COc4ccccc43)CC2)cc1 (centres unmarked) [Example 134, 1-((2,3-dihydrobenzofuran-3-yl)methyl)-4-(4-fluorophenoxy)piperidine] |  | 14 | 7.70 | 
13 | COc1cccc(OC2CCN(CCCN3CCc4ccccc4C3=O)CC2)c1 [Example 221, 2-(3-(4-(3-methoxyphenoxy)piperidin-1-yl)propyl)-3,4-dihydroisoquinolin-1(2H)-one] |  |  | 6.01 | 6.00
14 | OC(COC1CCCCC1)CN1C[C@H]2C[C@@H](C1)N2c1ccccc1 (stereo partly drawn) [Example 294, 1-(cyclohexyloxy)-3-((1R,5S)-6-phenyl-3,6-diazabicyclo[3.1.1]heptan-3-yl)propan-2-ol] | 47 |  | 6.55 | 
15 | Fc1ccc(O[C@H]2CCCN(CC3CCc4ccccc43)C2)cc1 (stereo partly drawn) [Example 254, (3S)-1-((2,3-dihydro-1H-inden-1-yl)methyl)-3-(4-fluorophenoxy)piperidine] |  |  | 6.28 | 6.11
16 | c1ccc([C@@H]2COC3(CCN(C[C@@H]4CCc5ccccc54)CC3)C2)cc1 (single isomer, unassigned) [Compound 376] |  |  | 7.70 | 6.29
17 | O=C1c2ccccc2CCN1CCN1C[C@@H]2CC[C@H]1CN2c1ccccc1 [Example 316, 2-(2-((1S,4S)-5-phenyl-2,5-diazabicyclo[2.2.2]octan-2-yl)ethyl)-3,4-dihydroisoquinolin-1(2H)-one] |  |  | 5.50 | 7.10
18 | Fc1ccc(OC2COCCN(CC3CCc4ccccc43)C2)cc1 (centres unmarked) [Example 276, 4-((2,3-dihydro-1H-inden-1-yl)methyl)-6-(4-fluorophenoxy)-1,4-oxazepane] |  |  | 6.40 | 6.36

Further lines, with some results ahead:

Row | inhibition at 10 µM [2] [%] | inhibition at 1 µM [2] [%] | SMILES | pIC50 [1] | pIC50 [2]
19 | 66 |  | O=C1c2ccccc2CCN1CCN1CCC(Oc2cccc(F)c2)CC1 [Example 193, 2-(2-(4-(3-fluorophenoxy)piperidin-1-yl)ethyl)-3,4-dihydroisoquinolin-1(2H)-one] | 6.48 | 
20 | 39 |  | CN(C)c1ccc(OC2CCN(CCN3CCc4ccccc4C3=O)CC2)cc1 [Example 201, 2-(2-(4-(4-(dimethylamino)phenoxy)piperidin-1-yl)ethyl)-3,4-dihydroisoquinolin-1(2H)-one] | 5.66 | 
21 | 50 |  | CN(C)Cc1ccc2c(c1)C(=O)N(CCN1CCC(Oc3ccc(F)cc3)CC1)CCC2 [Example 211, 8-((dimethylamino)methyl)-2-(2-(4-(4-fluorophenoxy)piperidin-1-yl)ethyl)-2,3,4,5-tetrahydro-1H-benzo[c]azepin-1-one] | 6.57 | 
22 |  | 22 | Fc1ccc(O[C@H]2CCCN(CC3COCc4ccccc43)C2)cc1 (stereo partly drawn) [Example 261, (3S)-3-(4-fluorophenoxy)-1-(isochroman-4-ylmethyl)piperidine] | 6.46 | 
23 | 77 |  | OC1(CN2CCC(Oc3ccc(F)cc3)CC2)COCc2ccccc21 (centres unmarked) [Example 159, 4-((4-(4-fluorophenoxy)piperidin-1-yl)methyl)isochroman-4-ol] | 7.70 | 
24 | 12 |  | O=C1c2ccccc2CCN1CCCN1CCC(Oc2cccnc2)CC1 [Example 220, 2-(3-(4-(pyridin-3-yloxy)piperidin-1-yl)propyl)-3,4-dihydroisoquinolin-1(2H)-one] | 6.31 | 
25 | 54 |  | O=C1Cc2ccccc2N1CCCN1CCC(Oc2ccc(F)cc2)CC1 [Example 219, 1-(3-(4-(4-fluorophenoxy)piperidin-1-yl)propyl)indolin-2-one] | 8.00 | 
26 |  | 29 | c1ccc2c(c1)CCC1(CCN(CCC3COCc4ccccc43)CC1)O2 (centres unmarked) [Example 421, 1′-(2-(isochroman-4-yl)ethyl)spiro[chromane-2,4′-piperidine]] | 6.89 | 
27 | 76 |  | c1ccc(OC2CCN(CCOc3ccc4cccnc4c3)CC2)cc1 [Example 232, 7-(2-(4-phenoxypiperidin-1-yl)ethoxy)quinoline] | 6.66 | 
28 |  | 58 | c1ccc(OC2CCN(CCO[C@H]3CCc4ccccc43)CC2)cc1 [Example 217, (S)-1-(2-((2,3-dihydro-1H-inden-1-yl)oxy)ethyl)-4-phenoxypiperidine] | 6.55 | 
